Data published in PMC8480901 (PLoS ONE, 2021).
Several values for one entry are separate records, joined by “and”; a condition that tells them apart may be missing. Identical values can stand only once.

Tests used:
[1] = system: IL-8–activated human neutrophils; assay: Chemotaxis of IL-8–activated human neutrophils (transwell, CellTiter Glo); format: cell-based; settings: for Neutrophilic chemotaxis, RLU, Mean / Neutrophilic chemotaxis: % reduction / Neutrophilic chemotaxis, RLU, single replicates: IL-8; for Neutrophilic chemotaxis, RLU, single replicates: listed as Ref
Excerpt: Buffy coat (blood sample fraction comprising white blood cells and platelets) from whole blood was obtained from a healthy adult volunteer at the Croatian Institute of Transfusion Medicine (CITM; Zagreb, Croatia). The CITM ethics committee approved the blood collection process, and the volunteer provided written informed consent prior to blood collection. Neutrophils were isolated from the buffy coat, an aliquot of which was used for cell counting via hematologic analyzer (X500i; Sysmex). […] The diluted buffy coat was drawn into sterile 50-mL syringes and incubated for 30 minutes at RT. Following incubation, the upper layer of leukocyte-rich plasma (35 mL) was decanted into a new sterile 50-mL conical centrifuge tube, carefully layered onto 15 mL of Lymphoprep (Axis-Shield Diagnostics, Ltd., Dundee, UK) and centrifuged at 400×g (brake turned off) for 35 minutes at RT. The supernatant and mononuclear ring were discarded, and the pellet was resuspended in 10 mL of cold sterile MilliQ water. […] Resuspended neutrophils were counted via Sysmex X500i hematologic analyzer.
All test compounds were reconstituted in DMSO (Sigma-Aldrich Chemie GmbH) to 100-mM stock concentrations, taking into consideration and correcting for salt and purity. A 30-mM stock solution of reference compound Sch527123 (MedChemExpress, Monmouth Junction, NJ, USA) was diluted to 10 mM with DMSO.
DMSO was used as vehicle. […] The reference compound was tested at concentrations of 0.003, 0.01, 0.03, 0.1, 0.3, 1, 3, and 10 μM. All compounds were tested in triplicate, and the final DMSO concentration was 0.1% per well.
Test and reference compound working solutions were then added (20 μL/well) for a 10-fold dilution to final testing concentrations. Compounds and cells were mixed by gentle pipetting, and the plate was pre-incubated for 30 minutes at RT with gentle mixing by pipetting.
Negative control wells received 180 μL of migration medium alone. To all wells, 20 μL of compound working solutions or DMSO vehicle was added. Once pre-incubation of cells with compounds was complete, the transwell inserts were carefully placed on the receiver plate, with caution to avoid air bubble formation, which could prevent cell migration. To the upper wells, 75 μL of cell suspension (375,000 cells/well) was added, taking care not to tear the membrane with pipette tips.
After incubation, the number of cells that migrated to the lower wells was quantified by removing the Transwell insert and adding 200 μL of CellTiter Glo reagent (CellTiter-Glo Luminescent Cell Viability Assay, Promega, Madison, WI, USA) to each lower well to quantify the amount of adenosine triphosphate (ATP) present, signaling the presence of metabolically active cells. The plate was incubated for 10 minutes in the dark at RT, followed by transferring 150 μL of solution into wells of a white 96-well plate (Lumitrac 200; Greiner Bio-One International GmbH, Kremsmunster, Austria).
For the chemotaxis and cytotoxicity evaluations, average relative light unit values were calculated from all untreated vehicle samples and, for each sample, percentage of vehicle value was calculated. The tested compound was considered cytotoxic if reduction from untreated vehicle was ≥20%.

[2] = system: methicillin-resistant Staphylococcus aureus wound infection; parameters: method as in PMID 32079232; settings: MRSA wound infection mouse model; cited from earlier work
[3] = system: LPS-induced acute lung injury; settings: cited from earlier work
[4] = system: murine RAW 264.7 macrophages; settings: cited from earlier work

SMILES: CC[C@@H](Nc1c(Nc2cccc(C(=O)N(C)C)c2O)c(=O)c1=O)c1ccc(C)o1 [Sch527123]
- IL-8–induced chemotaxis of human neutrophils ([1]; 0.003 to 10 μM): dose-dependent inhibition
- Neutrophilic chemotaxis, RLU, Mean ([1]; 0.003 µM): 136013 RLU
- Neutrophilic chemotaxis: % reduction ([1]; 0.003 µM): -2.55%
- Neutrophilic chemotaxis, RLU, single replicates ([1]; 0.003 µM): 126680 RLU and 141280 RLU and 140080 RLU
- Neutrophilic chemotaxis, RLU, Mean ([1]; 0.01 µM): 145907 RLU
- Neutrophilic chemotaxis: % reduction ([1]; 0.01 µM): -11%
- Neutrophilic chemotaxis, RLU, single replicates ([1]; 0.01 µM): 164560 RLU and 147560 RLU and 125600 RLU
- Neutrophilic chemotaxis, RLU, Mean ([1]; 0.03 µM): 131720 RLU
- Neutrophilic chemotaxis: % reduction ([1]; 0.03 µM): 1.09%
- Neutrophilic chemotaxis, RLU, single replicates ([1]; 0.03 µM): 131800 RLU and 131640 RLU
- Neutrophilic chemotaxis, RLU, Mean ([1]; 0.1 µM): 87493 RLU
- Neutrophilic chemotaxis: % reduction ([1]; 0.1 µM): 39%
- Neutrophilic chemotaxis, RLU, single replicates ([1]; 0.1 µM): 83280 RLU and 83800 RLU and 95400 RLU
- Neutrophilic chemotaxis, RLU, Mean ([1]; 0.3 µM): 34307 RLU
- Neutrophilic chemotaxis: % reduction ([1]; 0.3 µM): 84%
- Neutrophilic chemotaxis, RLU, single replicates ([1]; 0.3 µM): 34560 RLU and 36480 RLU and 31880 RLU
- Neutrophilic chemotaxis, RLU, Mean ([1]; 1 µM): 20080 RLU
- Neutrophilic chemotaxis: % reduction ([1]; 1 µM): 96%
- Neutrophilic chemotaxis, RLU, single replicates ([1]; 1 µM): 21040 RLU and 22120 RLU and 17080 RLU
- Neutrophilic chemotaxis, RLU, Mean ([1]; 3 µM): 18067 RLU
- Neutrophilic chemotaxis: % reduction ([1]; 3 µM): 97%
- Neutrophilic chemotaxis, RLU, single replicates ([1]; 3 µM): 19800 RLU and 19160 RLU and 15240 RLU
- Neutrophilic chemotaxis, RLU, Mean ([1]; 10 µM): 19573 RLU
- Neutrophilic chemotaxis: % reduction ([1]; 10 µM): 96%
- Neutrophilic chemotaxis, RLU, single replicates ([1]; 10 µM): 21800 RLU and 20760 RLU and 16160 RLU

SMILES: C=C[C@]1(C)C[C@@H](OC(=O)CSc2ccccc2N)[C@]2(C)[C@H](C)CC[C@]3(CCC(=O)[C@H]32)[C@@H](C)[C@@H]1O [amphenmulin, 22-(2-amino-phenylsulfanyl)-22-deoxypleuromutilin]
- TNF-α, IL-6, and CCL-2 serum levels [2]: significantly reduced

SMILES: CC[C@H]1OC(=O)[C@H](C)[C@@H](O[C@H]2C[C@@](C)(OC)[C@@H](O)[C@H](C)O2)[C@H](C)[C@@H](O[C@@H]2O[C@H](C)C[C@H](N(C)C)[C@H]2O)[C@](C)(OC)C[C@@H](C)C(=O)[C@H](C)[C@@H](O)[C@]1(C)O [clarithromycin]
- neutrophil recruitment ([3]; pretreatment in LPS-induced acute lung injury models): significantly reduced

SMILES: C=C[C@]1(C)C[C@@H](OC(=O)CSC(C)(C)CNC(=O)[C@H](N)C(C)C)[C@]2(C)[C@H](C)CC[C@]3(CCC(=O)[C@H]32)[C@@H](C)[C@@H]1O [valnemulin]
- LPS-induced production of inflammatory mediators, including nitric oxide, prostaglandin E2, TNF-α, and IL-6 [4]: significantly inhibited
- LPS-induced pulmonary edema, accumulation of inflammatory cells in BALF, and increased inflammatory cytokines (eg, TNF-α and IL-6) ([3]; pretreated mice vs no-treatment control group): significantly attenuated
